From the supplement of paper PMC5908809

Legend:
[1] = test system: normal NK cells expanded with K562-aAPC; assay: percent inhibition of viability; higher = more inhibition; settings: 72 h, IL-2 2.5 ng/mL
Description: (§1)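 Drug sensitivity and resistance testing on K562-aAPC-expanded normal NK cells: 5 concentrations (10-fold steps over a 10,000-fold range), 72 h at 37 °C, viability by CellTiter-Glo normalised to DMSO and benzethonium chloride controls; DSS from the fitted curve.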

[2] = test system: normal NK cells expanded with K562-aAPC; assay: drug sensitivity score (DSS) (DSS units); higher = more sensitive; extreme values may be limits of the assay; settings: 72 h; IL-2 2.5 ng/mL
Description: as §1

DERL-7 (IL-2 2.5 ng/mL) [3] = assay: percent inhibition of viability; higher = more inhibition; settings: 72 h
[4] = test system: normal primary NK cells, pool 3 (3 donors) (IL-2 2.5 ng/mL); assay: as above; settings: 72 h
NKL (IL-2 2.5 ng/mL) [5] = assay: as above; settings: 72 h
[6] = test system: normal primary NK cells, pool 1 (3 donors), resting (IL-2 0 ng/mL); assay: as above; settings: 72 h
SNK-6 (IL-2 2.5 ng/mL) [7] = assay: as above; settings: 72 h
[8] = test system: normal primary NK cells, pool 1 (3 donors) (IL-2 2.5 ng/mL); assay: as above; settings: 72 h
[9] = test system: normal primary NK cells, pool 2 (3 donors) (IL-2 2.5 ng/mL); assay: as above; settings: 72 h
KAI3 (IL-2 2.5 ng/mL) [10] = assay: as above; settings: 72 h
NK-YS (IL-2 2.5 ng/mL) [11] = assay: as above; settings: 72 h
IMC-1 (IL-2 20 ng/mL) [12] = assay: as above; settings: 72 h
YT (IL-2 2.5 ng/mL) [13] = assay: as above; settings: 72 h
NK-92 (IL-2 2.5 ng/mL) [14] = assay: as above; settings: 72 h
KHYG-1 (IL-2 2.5 ng/mL) [15] = assay: as above; settings: 72 h
DERL-7 (IL-2 2.5 ng/mL) [16] = assay: drug sensitivity score (DSS) (DSS units); higher = more sensitive; extreme values may be limits of the assay; settings: 72 h
[17] = test system: normal primary NK cells, pool 3 (3 donors) (IL-2 2.5 ng/mL); assay: as above; settings: 72 h
NKL (IL-2 2.5 ng/mL) [18] = assay: as above; settings: 72 h
[19] = test system: normal primary NK cells, pool 1 (3 donors), resting (IL-2 0 ng/mL); assay: as above; settings: 72 h
SNK-6 (IL-2 2.5 ng/mL) [20] = assay: as above; settings: 72 h
[21] = test system: normal primary NK cells, pool 1 (3 donors) (IL-2 2.5 ng/mL); assay: as above; settings: 72 h
[22] = test system: normal primary NK cells, pool 2 (3 donors) (IL-2 2.5 ng/mL); assay: as above; settings: 72 h
KAI3 (IL-2 2.5 ng/mL) [23] = assay: as above; settings: 72 h
NK-YS (IL-2 2.5 ng/mL) [24] = assay: as above; settings: 72 h
IMC-1 (IL-2 20 ng/mL) [25] = assay: as above; settings: 72 h
YT (IL-2 2.5 ng/mL) [26] = assay: as above; settings: 72 h
NK-92 (IL-2 2.5 ng/mL) [27] = assay: as above; settings: 72 h
KHYG-1 (IL-2 2.5 ng/mL) [28] = assay: as above; settings: 72 h

CS(=O)(=O)N1CCc2c(-c3cnc(N)nc3)nc(N3CCOCC3)nc21 (max concentration tested 10000 nM)
percent inhibition of viability [%]
Settings	1 nM	10 nM	100 nM	1000 nM	10000 nM
DERL-7 (IL-2 2.5 ng/mL) [3]	-3.09	-4.08	3.85	42.4	85.6
IMC-1 (IL-2 20 ng/mL) [12]	-0.46	0.95	2.38	-7.5	-15.8
KAI3 (IL-2 2.5 ng/mL) [10]	7.02	7.63	15.1	29.3	51.8
KHYG-1 (IL-2 2.5 ng/mL) [15]	4.51	-0.98	-0.03	9.84	39.7
NK-92 (IL-2 2.5 ng/mL) [14]	-5.62	-3.32	15.7	40.8	55.8
NK-YS (IL-2 2.5 ng/mL) [11]	4.61	0.28	4.3	32.1	62.7
NKL (IL-2 2.5 ng/mL) [5]	14.7	9.02	17.7	40.3	71.3
SNK-6 (IL-2 2.5 ng/mL) [7]	-21.9	-10.1	-16.1	5.8	44.2
YT (IL-2 2.5 ng/mL) [13]	2.76	1.12	1.06	26.2	75.4
[1]	-0.53	-3.07	3.27	24.3	52.9
[4]	-11.3	-9.29	13	19.5	28.9
[6]	-25.7	-37.9	3.84	-1.15	14.8
[8]	-5.22	-10.5	16.6	24.4	35.2
[9]	-2.54	-3.72	-0.24	21.6	34.8

Settings	drug sensitivity score
DERL-7 (IL-2 2.5 ng/mL) [16]	9.77
IMC-1 (IL-2 20 ng/mL) [25]	0
KAI3 (IL-2 2.5 ng/mL) [23]	7.4
KHYG-1 (IL-2 2.5 ng/mL) [28]	3.5
NK-92 (IL-2 2.5 ng/mL) [27]	9.23
NK-YS (IL-2 2.5 ng/mL) [24]	7.16
NKL (IL-2 2.5 ng/mL) [18]	10.4
SNK-6 (IL-2 2.5 ng/mL) [20]	3.23
YT (IL-2 2.5 ng/mL) [26]	7.87
[2]	5.59
[17]	4.2
[19]	0.17
[21]	5.87
[22]	4.2

CCCCC/C=C/C=C1/C(=O)C=C[C@@H]1C/C=C\CCCC(=O)O [15D-PGJ2] (max concentration tested 3000 nM)
percent inhibition of viability [%]
Settings	0.3 nM	3 nM	30 nM	300 nM	3000 nM
DERL-7 (IL-2 2.5 ng/mL) [3]	3.37	-0.28	-1.84	-0.56	14.4
IMC-1 (IL-2 20 ng/mL) [12]	-2.09	2.04	0.05	5.09	1.41
KAI3 (IL-2 2.5 ng/mL) [10]	-4.96	-2.91	-5.31	-1.28	16.5
KHYG-1 (IL-2 2.5 ng/mL) [15]	-5.02	1.78	4.62	3.59	4.59
NK-92 (IL-2 2.5 ng/mL) [14]	-11	-12	-5.46	5.82	13.3
NK-YS (IL-2 2.5 ng/mL) [11]	2.56	5.36	6.24	9.44	10.4
NKL (IL-2 2.5 ng/mL) [5]	-9.35	-3.21	-6.49	3.89	-15.1
SNK-6 (IL-2 2.5 ng/mL) [7]	1.92	3.18	18.9	6.05	19.9
YT (IL-2 2.5 ng/mL) [13]	-2.94	-0.98	-4.25	-6.3	12.1
[1]	-3.92	-2.07	0.09	7.83	19.8
[4]	-15.9	-3.38	4.01	-2.88	14.8
[6]	6.38	-19	3.5	-8.64	11.8
[8]	8.24	-4.33	-3.39	-9.81	14
[9]	-13.3	-1.17	5.71	0.83	16.9

Settings	drug sensitivity score
DERL-7 (IL-2 2.5 ng/mL) [16]	0.17
IMC-1 (IL-2 20 ng/mL) [25]	0
KAI3 (IL-2 2.5 ng/mL) [23]	0.28
KHYG-1 (IL-2 2.5 ng/mL) [28]	0
NK-92 (IL-2 2.5 ng/mL) [27]	0.46
NK-YS (IL-2 2.5 ng/mL) [24]	0
NKL (IL-2 2.5 ng/mL) [18]	0
SNK-6 (IL-2 2.5 ng/mL) [20]	1.74
YT (IL-2 2.5 ng/mL) [26]	0.01
[2]	1.44
[17]	0.13
[19]	0
[21]	0.07
[22]	0.45

COc1cc(N2CCN(C)CC2)ccc1Nc1nccc(-c2cn(C)c3cnccc23)n1 [AZ191] (max concentration tested 10000 nM)
percent inhibition of viability [%]
Settings	1 nM	10 nM	100 nM	1000 nM	10000 nM
DERL-7 (IL-2 2.5 ng/mL) [3]	7.49	2.85	4.6	22.2	100
IMC-1 (IL-2 20 ng/mL) [12]	-5.47	3.31	-0.27	2.63	101
KAI3 (IL-2 2.5 ng/mL) [10]	-2.82	-0.25	1.51	7.76	96.3
KHYG-1 (IL-2 2.5 ng/mL) [15]	0.79	2.96	3.04	14.1	84
NK-92 (IL-2 2.5 ng/mL) [14]	2.97	2.04	-3.34	-19.2	93.8
NK-YS (IL-2 2.5 ng/mL) [11]	-4.12	2.61	2.04	8.64	101
NKL (IL-2 2.5 ng/mL) [5]	0.2	-6.29	1.16	9.93	100
SNK-6 (IL-2 2.5 ng/mL) [7]	-18.5	-11.7	-15.3	-7.38	92
YT (IL-2 2.5 ng/mL) [13]	2.03	4.34	2.77	1.55	41.9
[1]	-2.34	0.52	-4.12	6.6	100
[4]	-10.6	-7.12	4.76	-17.3	97.8
[6]	1.62	-14.6	-3.74	-36.1	89
[8]	7.5	-5.03	-5.7	-4.75	96.8
[9]	-12.1	-5.94	-2.76	-11.2	95.5

Settings	drug sensitivity score
DERL-7 (IL-2 2.5 ng/mL) [16]	9.03
IMC-1 (IL-2 20 ng/mL) [25]	6.03
KAI3 (IL-2 2.5 ng/mL) [23]	6.56
KHYG-1 (IL-2 2.5 ng/mL) [28]	7.01
NK-92 (IL-2 2.5 ng/mL) [27]	4.21
NK-YS (IL-2 2.5 ng/mL) [24]	6.95
NKL (IL-2 2.5 ng/mL) [18]	7.17
SNK-6 (IL-2 2.5 ng/mL) [20]	4.58
YT (IL-2 2.5 ng/mL) [26]	2.31
[2]	6.54
[17]	4.48
[19]	3.59
[21]	5.01
[22]	4.59
